Assay [1] concerns hemiparkinsonian MPTP-monkeys. As to the kind of experiment: Ipsilateral and contralateral circling behavior in hemiparkinsonian MPTP-monkeys. Type of assay: in vivo, macaca fasicularis. The protocol: (§1) Six hemiparkinsonian ovariectomized female macaca fasicularis monkeys weighing 2.8-6.5 kg were used in this experiment. During induction of the parkinsonian syndrome, they received 1-methyl-4-phenyl-1,2,3,6-tetrahydropyridine (MPTP, 3 mg) via an Alzet pump during a period of 1-2 weeks according to the monkey. The procedure consisted of putting the pump in the left substantia nigra and the MPTP infused lesioned the dopaminergic cells. The animals were used at least 5 months after the induction of their hemiparkinsonian state at which time they had stabilized. For a further experimentation, 6 bilaterally-lesioned parkinsonian macaca fasicularis monkeys were used. The induction of the parkinsonian syndrome was performed according to the above-described methodology, except that the Alzet pump was installed so as to lesion dopaminergic cells of the substantia nigra in both brain hemispheres.
(§2) To determine the effect of levodopa, DHEA or combination thereof on parkinsonian monkeys, ipsilateral and contralateral circling was monitored in hemiparkinsonian monkeys while Parkinsonian score was determined in bilaterally-lesion parkinsonian monkeys. Hemiparkinsonian monkeys turn towards the ipsilateral side of the lesion (to the left) under basal conditions and upon dopaminergic stimulation this circling changes for the contralateral side (to the right). Parkinsonian score was determined in bilaterally-lesion parkinsonian monkeys according to the method known in the art. All received the same treatments and were their own controls. Monkeys were first treated with levodopa for priming until a stable antiparkinsonian behavior was observed. During the investigation of DHEA administered alone, priming of the monkeys was continued with administration of levodopa/benserazide (50/12.5 mg) given twice weekly. DHEA treatments were started on the third day after the last levodopa dose.
(§3) DHEA was administered at different doses (1, 5, and 15 mg/kg) by nasogastric gavage (n.g.) alone and in combination (DHEA: 1, 5, 10 and 15 mg/kg n.g.) with a s.c. T.L-Dopa. Threshold doses of levodopa, that is the minimal dose to obtain contralateral circling were sought for each of the MPTP-monkeys and varied from one monkey to another from 3 to 8 mg/kg (3, 4, 4.5, 5, 5, and 8 mg/kg). Higher doses of DHEA (25-100 mg/kg) alone or with T.L-Dopa were also tested in a similar paradigm.
Treatments were administered in the morning and each animal was recorded via a video camera system. Duration of locomotor activation lasted for 90 min for all hemiparkinsonian animals and treatments. […] Each treatment was repeated 2-3 times and averaged for each monkey.
Experimental data was compared using an ANOVA for repeated measures followed by post-hoc pair wise comparisons with Fisher's probability of least significant difference test (PLSD). A p<0.05 was required for the results to be considered statistically significant. Statistical comparison of square root transformation of the data was used to stabilize variance when required (D. C. Montgomery (1991) Third Edition, Design and analysis of experiments. ed. Whileys and Sons pp. 216).

The subject of assay [2] is bilaterally-lesioned parkinsonian MPTP-monkeys. As to the kind of experiment: Parkinsonian score and duration of levodopa effect in bilaterally-lesioned parkinsonian MPTP-monkeys. Format: in vivo, macaca fasicularis. As to the method: as §1, §2, §3
Experimental data was compared using an ANOVA for repeated measures followed by post-hoc pair wise comparisons with Fisher's probability of least significant difference test (PLSD). A p<0.05 was required for the results to be considered statistically significant. […]

[3] abbreviates: threshold dose of levodopa alone.
[4] abbreviates: DHEA 1 mg/kg n.g. added to threshold dose s.c. T.L-Dopa, compared to saline or T.L-Dopa alone.
[5] abbreviates: DHEA 5, 10 and 15 mg/kg n.g. combined with T.L-Dopa, compared to saline.

For `N[C@@H](Cc1ccc(O)c(O)c1)C(=O)O` [Levodopa, L-3,4-dihydroxyphenylalanine], in assay [1] (setting [3]), the contralateral circling result is listed as “increased”, the ipsilateral circling result is listed as “decreased” and the overall ipsilateral-contralateral circling result is recorded as “reducing”.
Take `C[C@]12CC[C@H](O)CC1=CC[C@@H]1[C@@H]2CC[C@]2(C)C(=O)CC[C@@H]12` [DHEA, Dehydroepiandrosterone]: the “contralateral circling (mean/30 min)” value was “significantly increased” in assay [1] (setting [4]); “significantly increased” in assay [1] (setting [5]); “significantly and similarly increased” in assay [1] (DHEA alone 1-15 mg/kg n.g., compared to saline treatment). The levodopa-induced locomotor activity entry in assay [1] (DHEA added to minimal threshold doses of levodopa) is given as “potentiates”. Further, the ipsilateral circling result in assay [1] (DHEA alone or DHEA combined to T.L-Dopa, versus basal conditions or saline) is reported as “decreased”. The “dose-response on circling behavior” value in assay [1] (DHEA alone or combined with levodopa) is given as “did not produce a significant dose-response”. In assay [1] (DHEA alone, n.g.), the “Duration of the DHEA effect” value is 90 min. The “effect on levodopa-induced change in ipsilateral, contralateral and ipsilateral-contralateral circling” value in assay [1] (optimal dose of DHEA for each monkey combined with threshold levodopa) is listed as “significantly potentiated”. The Parkinsonian score result in assay [2] (setting [4]) is reported as “decreased”; in assay [2] (setting [5]) it was “reduced”; in assay [2] (DHEA alone at different doses, n.g.) it was “reduce”. Further, the “increase of duration of levodopa effect” value in assay [2] (DHEA 1 and 5 mg/kg with threshold dose of levodopa, versus levodopa alone) is “approximately 40%”.

The values above are taken from US20050267085A1, “Combined therapy for the treatment of Parkinson's disease” (UNIVERSITE LAVAL, priority 2004, published 2005).
